Test results taken from patent publication US20090291857A1, “METHODS TO IDENTIFY INHIBITORS OF THE UNFOLDED PROTEIN RESPONSE” (THE BOARD OF TRUSTEES OF THE LELAND STANFORD JUNIOR …, priority 2006, published 2009).

Test system: P58^IPK and DER-1
Assay: Northern blot analysis of XBP-1s transcription targets
Assay type: cell-based, human
Details: 2 μM, Tm or hypoxia 24 hours
Description: Cells were cultured in 10 cm plates, harvested, and total RNA recovered with Trizol (Invitrogen, San Diego, Calif.). Total RNA (10 μg) was resolved on a 1% agarose-formaldehyde gel. ^32P-labeled probes were prepared using the Rediprime II random-prime labeling kit (GE-Amersham, Buckinghamshire, UK). The primers used to PCR amplify probes are as follows. P58^IPK: 5′[…] 3′ (SEQ ID NO: 4); 5′ […] 3′ (SEQ ID NO: 5). DER-1: 5′ […] 3′ (SEQ ID NO: 6); 5′[…] 3′ (SEQ ID NO: 7). Blots were incubated with probe overnight, washed three times in 2×SSC/0.2% SDS, dried, and exposed to a phosphorimager screen overnight. Images were analyzed using ImageQuant software (Molecular Dynamics).
A. XBP-luciferase reporter construct. Firefly luciferase was inserted downstream of the IRE1α splice site in human XBP-1 to enable the conditional translation of luciferase under ER stress in an IRE1α-dependent manner. […] After 24 hours, luciferase activity was analyzed in an automated plate reader. For each cell line, values are expressed as the percent inhibition of the median for Tm/Tg-treated wells, corrected for background. […] Values are expressed as the fold increases over uninduced levels. […] Cells were harvested, lysed, and analyzed by immunoblotting with antisera specific for HIF-1α (top), XBP-1s (middle) or actin (bottom). […] Total RNA was analyzed by Northern blotting using radiolabeled probes specific for P58^IPK or DER-1. […]

Cc1csc(NC(=O)CSc2nc3c(c(C(F)(F)F)c2C#N)CCC3)n1 [Compound 9389]
induction of P58^IPK and DER-1 expression: fully inhibited this response
